Here are results for one substance from US6867179B1, “Methods of inducing hair growth and coloration” (Trustees of Boston University, priority 1994, dated 2005).

“Also recorded” adds a separate entry of the source. A value given as a limit tells only on which side of the number the result lay.

For one series, the system named is human melanocytes. The class given is cell-based.
Series [1] deals with melanocytes. Kind of series: Apoptosis (propidium iodide-positive nuclei) in UV-irradiated melanocytes. The class given is cell-based, human. The conditions noted are these: UV 10 mJ/cm^2, 50 ng/ml NGF, 24 hours after irradiation; diluent about 30%. The protocol: To determine if melanocyte apoptosis is mediated by p75 NGF-R, cultures were treated as above, and then incubated in the presence of a blocking anti-human p75 NGF-R monoclonal antibody believed to act as a pseudo-ligand for the p75 NGF-R. (Anti-human p75 NGF-R monoclonal antibody courtesy of Moses V. Chao, Cornell University Medical Center, New York, N.Y.; Ross, et al., Proc. Natl. Acad. Sci. 81:6681 (1984)).
Melanocytes were cultured on 8 chamber tissue culture slides (Nunc Inc., Naperville, Ill.) and were UV irradiated with 10 mJ/cm^2 as above. Four microM of propidium iodide (PI) was added to melanocyte cultures 24 hours after irradiation, for 5 minutes at […]. Cultures were washed with PBS and nuclei were analyzed using a Leitz confocal laser microscope (Leica, Deerfield, Ill.).
Melanocytes were sham or UV irradiated with 10 mJ/cm^2 and 25 mJ/cm^2. Twenty-four hours after irradiation, […] of propidium iodide was added to cultures as above and cells were viewed with fluorescent phase contrast Nikon microscope. The number of fragmented or homogeneously stained nuclei versus nonstained nuclei was determined in several representative fields and expressed as a percent of total cells. A minimum of 130 cells were counted for each condition.
Melanocytes were irradiated with 10 mJ/cm^2 or were sham irradiated as in Example 1 and then provided 50 ng/ml NGF or diluent alone. […]

A further series deals with MM4 cells. Kind of series: DNA fragmentation (DNA ladder) after UV irradiation, FIG. 3A. The series is classed as cell-based, human. The conditions noted are these: 50 ng/ml NGF, 24 hours after UV irradiation. The protocol: Cells in 100 mm tissue culture dishes were washed with cold PBS and disrupted in lysis buffer pH8 (10 mM tris, 150 mM NaCl, 0.1 mM EDTA, 1% SDS, 200 µg/ml proteinase K). After 15 hour incubation at […], samples were extracted twice with phenol plus chloroform (1:1, V/V) and precipitated overnight with ethanol (2.5×volume) and 3 M sodium acetate (1/10×volume). The DNA was then digested with DNAse free ribonuclease ([…]) for one hour at […], separated on 1% agarose gel and stained with ethidium bromide. The size marker is 100 bp DNA ladder (STD) (Gibco/BRL, Gaithersburg, Md.).
Melanocytes or MM4 cells were plated as described in Example 1. After irradiation, melanocytes were maintained in basal melanocyte medium lacking FBS and hydrocortisone, with 50 ng/ml NGF or diluent alone (melanocyte medium). MM4 cells were maintained in DME supplemented with 50 ng/ml NGF or diluent alone.
The standard (STD) is 100 bp DNA ladder (Gibco/BRL). (See FIG. 3A).

A further series concerns Bcl-2 protein. Kind of series: Bcl-2 protein expression in MM4 cells (FACScan, Western blot). The class given is cell-based, human. The method, then:
To determine if NGF induces Bcl-2 protein, MM4 cells were UV-irradiated with 10 mJ/cm^2 or sham irradiated and then supplemented with NGF or diluent alone as explained in Example 3. Twenty-four hours after irradiation, cells were washed with PBS and then detached with 0.5 mM EDTA and washed again with PBS. 10^6 cells were incubated with […] mouse anti human Bcl-2 monoclonal antibody (DAKO Co., Carpinteria, Calif.) or with the same concentration of normal mouse IgG (Cappel, Organon Teknika Co., West Chester, Pa., USA) in PBS with 0.3% Saponin (Sigma, St, Louis, Mo.) for 2 hours at 4%C. After three washes with PBS, cells were incubated with fluorescein-conjugated goat anti-mouse IgG (1 hour at 4%C) (Cappel), washed four times in PBS, fixed with 0.1% fresh formaldehyde, and washed three times in PBS. Fluorescence intensity was determined using FACScan flow cytometer (Becton-Dickinson, San Jose, Calif.).
(−) mouse IgG control; (_) diluent alone; ( . . . ) 50 ng/ml NGF.
MM4 cells were extracted in RIPA buffer (50 mM Tris-HCl [pH 8.0], 0.15 M NaCl, 0.5% sodium deoxycholate, 1% Triton X-100) in the presence of […] aprotinin and 75 µg/ml phenylmethylsulfonyl fluoride, sonicated for 1-3 seconds and centrifuged. […] of protein per lane were separated on 12% SDS/PAGE and blotted onto nitrocellulose paper (overnight, 40V). […]
(In general: In western blotting, separated proteins are transferred to a membrane and probed.)

Series [2] relates to melanocytes. Kind of series: NGF protection of melanocytes from beta-amyloid-induced cell death. The class given is cell-based, human. The method, then: Melanocytes were maintained as above in hormone supplemented medium lacking hydrocortisone. Cells were supplemented with 25 microM of beta-amyloid 1-40 in the presence of 50 ng/ml NGS or diluent.
Photographs of representative fields were obtained and the percent of the live cells (spread) was determined 48 hours after addition of beta-amyloid and NFG or beta-amyloid and diluent. In the presence of beta-amyloid and diluent 77±8.5% appeared spread as compared to 96±1.4% in cultures supplemenbetated in beta-amyloid and NGF.

Another series relates to p75. Kind of series: p75 signal transduction in melanocytes (JNK activation, intracellular ceramide). The class given is cell-based, human. The protocol:
To investigate p75 signal transduction, it was first determined by RT-PCR that trkA and trkC are not expressed in MC maintained in choleragen/TPA-free medium. MC were incubated with 10 ng/ml nerve growth factor (NGF) or neurotrophin-3 (NT-3) for 30 minutes and c-Jun amino terminal kinase (JNK) activation was determined. […] Furthermore, within 3 hours p75 activation by NGF, but not by NT-3, lead to a 2-fold increase of intracellular ceramide. As before, ceramide increase was abrogated by pre-incubation with the cyclic peptide. Because in cell lines, UV irradiation directly activates cell surface receptors such as Fas and the TNFα receptor, sham- or UV-irradiated MC were used to determine p75 activation.

Setting [3] is: NGF supplementation, preliminary data.

In the case of “NGF: nerve growth factor, neurotrophin ligand of p75 NGF-R and trk”, the “Cell yields of melanocytes versus diluent alone” value in the series on human melanocytes (UV 10 mJ/cm^2, 50 ng/ml NGF, 7 experiments) is recorded as “significantly higher”. Also, in the series with human melanocytes (determined daily for 19 days), the “Cell yields, NGF-treated versus control cultures” value is “up to 6.5 fold” and the “Thymidine labeling index, NGF-treated versus control cultures” value was ≤ 10 fold. Further, the “Appearance of cultures after UV irradiation” value with human melanocytes (melanocytes and MM4 cells, 50 ng/ml NGF) is “appeared healthy”. Moreover, in the series on melanocytes [1], the “Nuclei showing fragmentation (propidium iodide positive)” value is on record as 12%. Further, the “DNA fragmentation after UV irradiation” value with MM4 cells was “not fragmented; also recorded: far less fragmentation”. Further, the Bcl-2 level result in the series with Bcl-2 protein (UV 10 mJ/cm^2 followed by 50 ng/ml NGF, 24 hours) is reported as “substantially higher; also recorded: Bcl-2 induction”. Besides, the Bcl-2 level entry in the series with Bcl-2 protein (sham irradiated, 50 ng/ml NGF) is reported as “only low levels of Bcl-2 protein”. In addition, the “Percent of live cells (spread)” value in the series with melanocytes [2] (25 microM beta-amyloid 1-40 and 50 ng/ml NGF, 48 hours) was 96±1.4%. In addition, the “Cell yields of beta-amyloid-supplemented melanocytes” value in the series with melanocytes [2] (NGF addition, within 3-5 days) was “enhanced cell yields”. Also, in the series on melanocytes [2] (setting [3]), the “Bcl-2 levels in beta-amyloid treated cells” value is recorded as “increases Bcl-2 levels” and the “Beta-amyloid-induced Bax upregulation” value was “decreases the beta-amyloid-induced Bax upregulation”. Further, in the series on melanocytes [2] (in the presence of NGF), the “Appearance of beta-amyloid exposed melanocytes” value was “appear healthy and spread on the dish surface”. Moreover, the “JNK activation (phosphorylation of GST-c-Jun(1-79))” value in the series with p75 (10 ng/ml, 30 minutes, MC without trkA and trkC) is given as “substantially induced phosphorylation of GST-c-Jun(1-79)”. The “Increase of intracellular ceramide” value in the series on p75 (within 3 hours) turned out to be 2 fold.
